# According to patent US20090075281A1, “MTBE GENES” (REGENTS OF THE UNIVERSITY OF CALIFORNIA, priority 2007, published 2009):
# What was measured:
# M. petroleiphilum PM1 [1] = experiment: PM1 growth in mineral salts medium (MSM) on a sole carbon source; format: cell-based, Methylibium petroleiphilum PM1; conditions: for doubling time of PM1 cells, t1/2: cells growing on the substance as sole carbon source; for concentration up to which PM1 is capable of growth: on MSM
# PM1 = experiment: MTBE degradation kinetics by PM1; format: cell-based, Methylibium petroleiphilum PM1
# M. petroleiphilum PM1 [2] = experiment: PM1 tolerance of MTBE on tryptic soy broth media; format: cell-based, Methylibium petroleiphilum PM1
# n-alkane grown GPo 1 = conditions: cited from earlier work
# [3] = used to calculate solution-phase concentration; cited from earlier work
Structure (SMILES),"doubling time of PM1 cells, t1/2 (M. petroleiphilum PM1 [1]) [h]",concentration up to which PM1 is capable of growth (M. petroleiphilum PM1 [1]),apparent half saturation constant for MTBE (PM1) [µM],tolerated concentration (M. petroleiphilum PM1 [2]),Ks values for MTBE (n-alkane grown GPo 1) [mM],dimensionless Henry's constant [3]
CCO [ethanol],6.1,up to 7.9 g/L,,,,
"COC(C)(C)C [MTBE, methyl tert-butyl ether]",15,up to 1000 mg/L,88,"up to 5,000 mg/L",20 to 40,0.023
